According to the NIST ThermoML archive (doi:10.1016/j.jct.2017.03.032):

Experiment: wn = mass fraction of the nth substance listed
Conditions: Gas, Burnett expansion method

F/C=C/C(F)(F)F [trans-1,3,3,3-tetrafluoropropene] + CC(C)C
Conditions | mass density [kg/m3]
315.14 K, 227.3 kPa, w1 = 0.65 | 7.7977
315.14 K, 297.2 kPa, w1 = 0.65 | 10.348
315.14 K, 301.4 kPa, w1 = 0.75 | 11.3213
315.14 K, 386 kPa, w1 = 0.65 | 13.7325
315.14 K, 392.5 kPa, w1 = 0.75 | 15.0241
315.14 K, 497.8 kPa, w1 = 0.65 | 18.2238
315.14 K, 506.8 kPa, w1 = 0.75 | 19.9379
315.14 K, 642.7 kPa, w1 = 0.75 | 26.4588
315.15 K, 173.5 kPa, w1 = 0.65 | 5.8759
315.15 K, 173.8 kPa, w1 = 0.7 | 6.1345
315.15 K, 175.6 kPa, w1 = 0.75 | 6.4285
315.15 K, 190.1 kPa, w1 = 0.85 | 7.5778
315.15 K, 229.1 kPa, w1 = 0.7 | 8.1409
315.15 K, 230.4 kPa, w1 = 0.75 | 8.531
315.15 K, 249.3 kPa, w1 = 0.85 | 10.0562
315.15 K, 299.1 kPa, w1 = 0.7 | 10.8034
315.15 K, 325.7 kPa, w1 = 0.85 | 13.3452
315.15 K, 390.1 kPa, w1 = 0.7 | 14.3368
315.15 K, 422.3 kPa, w1 = 0.85 | 17.7101
315.15 K, 497.7 kPa, w1 = 0.7 | 19.0258
315.15 K, 539.7 kPa, w1 = 0.85 | 23.5026
315.16 K, 185.3 kPa, w1 = 0.8 | 7.0584
315.16 K, 317.7 kPa, w1 = 0.8 | 12.4305
315.16 K, 333.2 kPa, w1 = 0.9 | 14.2331
315.16 K, 412.2 kPa, w1 = 0.8 | 16.4962
315.16 K, 529.7 kPa, w1 = 0.8 | 21.8918
315.17 K, 148.1 kPa, w1 = 0.9 | 6.0901
315.17 K, 194.6 kPa, w1 = 0.9 | 8.0819
315.17 K, 243 kPa, w1 = 0.8 | 9.3669
315.17 K, 255.2 kPa, w1 = 0.9 | 10.7253
315.17 K, 432.8 kPa, w1 = 0.9 | 18.8881
315.17 K, 551.9 kPa, w1 = 0.9 | 25.0657
320.12 K, 779.8 kPa, w1 = 0.8 | 33.8752
320.13 K, 286 kPa, w1 = 0.8 | 10.922
320.13 K, 373.2 kPa, w1 = 0.8 | 14.4942
320.13 K, 483.3 kPa, w1 = 0.8 | 19.2347
320.13 K, 616.7 kPa, w1 = 0.8 | 25.5259
320.14 K, 165.2 kPa, w1 = 0.8 | 6.2018
320.14 K, 168.8 kPa, w1 = 0.9 | 6.8698
320.14 K, 218.3 kPa, w1 = 0.8 | 8.2301
320.14 K, 221.7 kPa, w1 = 0.9 | 9.1166
320.14 K, 290.4 kPa, w1 = 0.9 | 12.0982
320.14 K, 378.8 kPa, w1 = 0.9 | 16.0551
320.14 K, 491 kPa, w1 = 0.9 | 21.3061
320.14 K, 621.3 kPa, w1 = 0.9 | 28.2744
320.15 K, 148.8 kPa, w1 = 0.7 | 5.1243
320.15 K, 195.8 kPa, w1 = 0.7 | 6.8002
320.15 K, 256.8 kPa, w1 = 0.7 | 9.0242
320.15 K, 335.6 kPa, w1 = 0.7 | 11.9756
320.15 K, 340.3 kPa, w1 = 0.65 | 11.7766
320.15 K, 435.2 kPa, w1 = 0.7 | 15.8926
320.15 K, 441.3 kPa, w1 = 0.65 | 15.6283
320.15 K, 556 kPa, w1 = 0.7 | 21.0901
320.15 K, 569.2 kPa, w1 = 0.65 | 20.7395
320.16 K, 152 kPa, w1 = 0.65 | 5.039
320.16 K, 154 kPa, w1 = 0.75 | 5.5344
320.16 K, 199.9 kPa, w1 = 0.65 | 6.687
320.16 K, 262 kPa, w1 = 0.65 | 8.8741
320.16 K, 266.1 kPa, w1 = 0.75 | 9.7466
320.16 K, 347.7 kPa, w1 = 0.75 | 12.9343
320.16 K, 577.4 kPa, w1 = 0.75 | 22.7785
320.16 K, 730.8 kPa, w1 = 0.75 | 30.2287
320.17 K, 203 kPa, w1 = 0.75 | 7.3444
320.17 K, 451.9 kPa, w1 = 0.75 | 17.1645
320.19 K, 162.2 kPa, w1 = 0.85 | 6.3277
320.19 K, 214.1 kPa, w1 = 0.85 | 8.3973
320.19 K, 279.4 kPa, w1 = 0.85 | 11.1439
320.19 K, 364.7 kPa, w1 = 0.85 | 14.7884
320.19 K, 472.3 kPa, w1 = 0.85 | 19.6252
320.19 K, 605 kPa, w1 = 0.85 | 26.0438
320.19 K, 764.8 kPa, w1 = 0.85 | 34.5619
325.1 K, 181 kPa, w1 = 0.85 | 6.9723
325.1 K, 219.4 kPa, w1 = 0.75 | 7.845
325.1 K, 287.7 kPa, w1 = 0.75 | 10.4108
325.1 K, 311.6 kPa, w1 = 0.85 | 12.2787
325.1 K, 374.7 kPa, w1 = 0.75 | 13.8158
325.1 K, 406.4 kPa, w1 = 0.85 | 16.2947
325.1 K, 488 kPa, w1 = 0.75 | 18.3343
